We go through 28 compounds from patent US20030224942A1, “Alkylamino-1,3,5-triazines, processes for their preparation and their use as herbicides and plant growth regulators” (priority 2001, published 2003).

Experiment [1] deals with Cyperus spp., Echinochloa spp., Digitaria spp., Sagitaria spp. and Scirpus spp. The experiment in a line: Action on harmful plants in rice (paddy rice conditions, visual scoring). The experiment is classed as in vivo, typical rice weeds (gramineous and broad-leaved). To be noted: applied into the dammed water, visual scoring about three weeks after application. The method, boiled down:
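Rice and typical gramineous and broad-leaved rice weeds grown in closed pots in greenhouse under paddy conditions (2-3 cm water) to three-leaf stage (Echinochloa crus-galli 1.5-leaf), then treated with compounds. Plants kept under optimum greenhouse conditions throughout; effect scored visually.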

Experiment [2] relates to Chenopodium spp., Papaver spp., Polygonum spp., Veronica spp. or Viola spp. Kind of experiment: Post-emergence effect on weeds (greenhouse pot test, visual scoring). The experiment is classed as in vivo, monocotyledonous and dicotyledonous weeds. To be noted: treated at three-leaf stage; visual scoring after about 3 to 4 weeks; application rate of 0.5 kg and less of active substance per hectare.

Consider `C#Cc1c(F)cc(C(Nc2nc(N)nc(CC)n2)C2CC2)cc1F` (centres unmarked) [Product P9.352], for which, in experiment [1], the “herbicidal activity against harmful plants which are typical for rice crops” value (“herbicidal activity … for rice crops” for short) is “very good herbicidal activity”. The “herbicidal activity post-emergence against harmful plants” value (shortened to “herbicidal activity post-emergence”) in experiment [2] is reported as “very good herbicidal activity”.

Consider `CC#Cc1cc(C(Nc2nc(N)nc(CC)n2)C2CC2)ccc1F` (centres unmarked) [Product P9.384], for which, in experiment [1], the “herbicidal activity … for rice crops” value is “very good herbicidal activity”. The “herbicidal activity post-emergence” value in experiment [2] was “very good herbicidal activity”.

For `CC#Cc1c(F)cc(C(Nc2nc(N)nc(CC)n2)C2CC2)cc1F` (centres unmarked) [Product P9.428], in experiment [1], the “herbicidal activity … for rice crops” value was “very good herbicidal activity”. Moreover, in experiment [2], the “herbicidal activity post-emergence” value is on record as “very good herbicidal activity”.

Consider `CCc1nc(N)nc(NC(c2cccc(C(F)=C(F)F)c2)C2CC2)n1` (centres unmarked) [Product P9.1567], for which the “herbicidal activity … for rice crops” value in experiment [1] is given as “very good herbicidal activity”. Further, the “herbicidal activity post-emergence” value in experiment [2] is listed as “very good herbicidal activity”.

`CCc1nc(N)nc(NC(c2ccc(C(F)=C(F)F)cc2)C2CC2)n1` (centres unmarked) [Product P9.1568]: the “herbicidal activity … for rice crops” value in experiment [1] is listed as “very good herbicidal activity”. Further, in experiment [2], the “herbicidal activity post-emergence” value is given as “very good herbicidal activity”.

With `C#Cc1cccc(C(Nc2nc(N)nc(CC)n2)C2CC2)c1` (centres unmarked) [Product P9.1579], in experiment [1], the “herbicidal activity … for rice crops” value is “very good herbicidal activity”. The “herbicidal activity post-emergence” value in experiment [2] is listed as “very good herbicidal activity”.

Consider `C#Cc1ccc(C(Nc2nc(N)nc(CC)n2)C2CC2)cc1` (centres unmarked) [Product P9.1580], for which the “herbicidal activity … for rice crops” value in experiment [1] is recorded as “very good herbicidal activity”. For the same compound, the “herbicidal activity post-emergence” value in experiment [2] is “very good herbicidal activity”.

Consider `CC#Cc1cccc(C(Nc2nc(N)nc(CC)n2)C2CC2)c1` (centres unmarked) [Product P9.1582], for which, in experiment [1], the “herbicidal activity … for rice crops” value was “very good herbicidal activity”. Further, in experiment [2], the “herbicidal activity post-emergence” value was “very good herbicidal activity”.

Consider `CC#Cc1ccc(C(Nc2nc(N)nc(CC)n2)C2CC2)cc1` (centres unmarked) [Product P9.1583], for which, in experiment [1], the “herbicidal activity … for rice crops” value is reported as “very good herbicidal activity”. Further, in experiment [2], the “herbicidal activity post-emergence” value is reported as “very good herbicidal activity”.

As to `CCc1nc(N)nc(NC(c2cccc(C3CC3)c2)C2CC2)n1` (centres unmarked) [Product P9.1603], the “herbicidal activity … for rice crops” value in experiment [1] was “very good herbicidal activity”. Also, the “herbicidal activity post-emergence” value in experiment [2] is “very good herbicidal activity”.

`CCc1nc(N)nc(NC(c2ccc(C3CC3)cc2)C2CC2)n1` (centres unmarked) [Product P9.1604]: the “herbicidal activity … for rice crops” value in experiment [1] is reported as “very good herbicidal activity”. For the same compound, the “herbicidal activity post-emergence” value in experiment [2] is reported as “very good herbicidal activity”.

Take `CC(C)c1nc(N)nc(NCc2cccc(C(F)=C(F)F)c2)n1` [Product P11.1567]: the “herbicidal activity … for rice crops” value in experiment [1] was “very good herbicidal activity”. The “herbicidal activity post-emergence” value in experiment [2] is recorded as “very good herbicidal activity”.

Regarding `CC(C)c1nc(N)nc(NCc2ccc(C(F)=C(F)F)cc2)n1` [Product P11.1568], the “herbicidal activity … for rice crops” value in experiment [1] is on record as “very good herbicidal activity”. Moreover, the “herbicidal activity post-emergence” value in experiment [2] is “very good herbicidal activity”.

For `C#Cc1cccc(CNc2nc(N)nc(C(C)C)n2)c1` [Product P11.1579], in experiment [1], the “herbicidal activity … for rice crops” value is reported as “very good herbicidal activity”. Besides, the “herbicidal activity post-emergence” value in experiment [2] is listed as “very good herbicidal activity”.

As for `C#Cc1ccc(CNc2nc(N)nc(C(C)C)n2)cc1` [Product P11.1580], in experiment [1], the “herbicidal activity … for rice crops” value is given as “very good herbicidal activity”. Besides, in experiment [2], the “herbicidal activity post-emergence” value is recorded as “very good herbicidal activity”.

On to `CC#Cc1cccc(CNc2nc(N)nc(C(C)C)n2)c1` [Product P11.1582], for which the “herbicidal activity … for rice crops” value in experiment [1] is reported as “very good herbicidal activity”. The “herbicidal activity post-emergence” value in experiment [2] is “very good herbicidal activity”.

On to `CC#Cc1ccc(CNc2nc(N)nc(C(C)C)n2)cc1` [Product P11.1583], for which the “herbicidal activity … for rice crops” value in experiment [1] is “very good herbicidal activity”. The “herbicidal activity post-emergence” value in experiment [2] is “very good herbicidal activity”.

Take `CC(C)c1nc(N)nc(NCc2cccc(C3CC3)c2)n1` [Product P11.1603]: the “herbicidal activity … for rice crops” value in experiment [1] is listed as “very good herbicidal activity”. Besides, in experiment [2], the “herbicidal activity post-emergence” value is recorded as “very good herbicidal activity”.

Take `CC(C)c1nc(N)nc(NCc2ccc(C3CC3)cc2)n1` [Product P11.1604]: the “herbicidal activity … for rice crops” value in experiment [1] is on record as “very good herbicidal activity”. Also, the “herbicidal activity post-emergence” value in experiment [2] is given as “very good herbicidal activity”.

As to `CC(C)c1nc(N)nc(NC(C)c2ccc(F)c(C(F)=C(F)F)c2)n1` (centres unmarked) [Product P12.5], the “herbicidal activity … for rice crops” value in experiment [1] is listed as “very good herbicidal activity”. In addition, the “herbicidal activity post-emergence” value in experiment [2] is “very good herbicidal activity”.

As to `CC(C)c1nc(N)nc(NC(C)c2cc(F)c(C(F)=C(F)F)c(F)c2)n1` (centres unmarked) [Product P12.49], the “herbicidal activity … for rice crops” value in experiment [1] is on record as “very good herbicidal activity”. Further, the “herbicidal activity post-emergence” value in experiment [2] was “very good herbicidal activity”.

With `C#Cc1ccc(C(C)Nc2nc(N)nc(C(C)C)n2)cc1C` (centres unmarked) [Product P12.335], the “herbicidal activity … for rice crops” value in experiment [1] is reported as “very good herbicidal activity”. Besides, the “herbicidal activity post-emergence” value in experiment [2] is given as “very good herbicidal activity”.

With `CC(O)C#Cc1cc(C(C)Nc2nc(N)nc(C(C)C)n2)ccc1F` (centres unmarked) [Product P12.840], the “herbicidal activity … for rice crops” value in experiment [1] is reported as “very good herbicidal activity”. The “herbicidal activity post-emergence” value in experiment [2] is recorded as “very good herbicidal activity”.

Regarding `CC(C)c1nc(N)nc(NC(C)c2ccc(F)c(C3CC3)c2)n1` (centres unmarked) [Product P12.916], in experiment [1], the “herbicidal activity … for rice crops” value is “very good herbicidal activity”. In addition, in experiment [2], the “herbicidal activity post-emergence” value is reported as “very good herbicidal activity”.

As to `CC(C)c1nc(N)nc(NC(C)c2cc(F)c(C3CC3)c(F)c2)n1` (centres unmarked) [Product P12.960], in experiment [1], the “herbicidal activity … for rice crops” value was “very good herbicidal activity”. In experiment [2], the “herbicidal activity post-emergence” value was “very good herbicidal activity”.

For `CC(C)c1nc(N)nc(NC(C)c2cccc(C(F)=C(F)F)c2)n1` (centres unmarked) [Product P12.1567], the “herbicidal activity … for rice crops” value in experiment [1] is on record as “very good herbicidal activity”. Moreover, the “herbicidal activity post-emergence” value in experiment [2] was “very good herbicidal activity”.

As to `CC(C)c1nc(N)nc(NC(C)c2ccc(C(F)=C(F)F)cc2)n1` (centres unmarked) [Product P12.1568], in experiment [1], the “herbicidal activity … for rice crops” value is given as “very good herbicidal activity”. Moreover, in experiment [2], the “herbicidal activity post-emergence” value is listed as “very good herbicidal activity”.

Regarding `C#Cc1cccc(C(C)Nc2nc(N)nc(C(C)C)n2)c1` (centres unmarked) [Product P12.1579], in experiment [1], the “herbicidal activity … for rice crops” value is “very good herbicidal activity”. Also, the “herbicidal activity post-emergence” value in experiment [2] is listed as “very good herbicidal activity”.
